# Experimental data from article PMC12564265, “Navigating the Deep Eutectic Solvent Landscape: Experimental and Machine Learning Solubility Explorations of Syringic, p-Coumaric, and Caffeic Acids” (International Journal of Molecular Sciences, 2025).
# Experiment: Shake-flask solubility with spectrophotometric measurement in aqueous DES mixtures
# Assay type: physicochemical
# Conditions: for Increase in the solubility compared to the neat DES: 25 °C
# Experimental: In order to determine the solubility of the three studied phenolic acids in deep eutectic solvents, a very well-established shake-flask method coupled with spectrophotometric measurements was utilized. The initial procedure involved the preparation of various DESs, which was conducted by mixing their HBA and HBD counterparts in a glass vessel and heating the composition until the formation of a transparent, uniform liquid. […] For additional measurements, the DESs were mixed with water in varying proportions, creating aqueous DES systems. Saturated solutions of CAF, SYR, and COU were obtained by adding excess amounts of these compounds to test tubes containing either a neat deep eutectic solvent or its aqueous solution. Such samples were placed in the Orbital Shaker Incubator ES-20/60 from Biosan (Riga, Latvia) and heated for 24 h at 25 °C, 30 °C, 35 °C, and 40 °C (±0.1 °C) with simultaneous mixing at 60 rpm. Before measurements, the samples were filtered using a PTFE syringe filter from Qpore (Dallas, TX, USA) with a 0.22 μm pore size. In order to avoid possible precipitation of the saturated solutions at decreased temperatures, the test tubes, syringes, pipette tips, and filters were kept at a temperature identical to that of the samples. The spectrophotometric measurements required the preparation of calibration curves for the three APIs. This involved the preparation of a stock solution of each compound in methanol, which was later successfully diluted, and the obtained solutions of varying concentrations were measured using an A360 spectrophotometer from AOE Instruments (Shanghai, China). The wavelength range was set to 200-500 nm, and the resolution was 1 nm. The analytical wavelengths were determined to be 324 nm for caffeic acid, 273 nm for syringic acid, and 308 nm for p-coumaric acid. The final regression equations, obtained after averaging three distinct sets of measurements, are collected in Table 2 together with determination coefficients and limits of detection (LOD) and quantification (LOQ) for the calibration curves. The measurements of the samples were conducted with the same spectrophotometer and identical settings. Methanol was used for the dilution of the samples so that they could remain within the linearity range of the method. Complete spectra of the samples were recorded, but for the solubility determination, the absorbance values at a specific analytical wavelength were considered. These values were combined with the corresponding regression equations of the calibration curves and served for the calculation of the concentration of the three phenolic acids in the studied samples. The densities of such samples were also measured, and for this task 1 mL of each sample was weighed to a precision of 0.1 mg using an AS 110 R2.PLUS analytical balance from […] (Radom, Poland). The obtained densities enabled the calculation of mole fractions of CAF, SYR, and COU dissolved in the studied DESs. For each considered system, three distinct measurements were conducted, and the results were averaged.
structure (smiles),measurement,setting,value
"COc1cc(C(=O)O)cc(OC)c1O [syringic acid, 4-hydroxy-3,5-dimethoxybenzoic acid]",Mole fraction solubility,"Bet – TEG 1:2 + water, x*DES 0.9, 30°C",0.0551±0.0005 mole fraction
same,Mole fraction solubility,"Bet – TEG 1:2 + water, x*DES 0.9, 35°C",0.0682±0.0014 mole fraction
same,Mole fraction solubility,"Bet – TEG 1:2 + water, x*DES 0.9, 40°C",0.0796±0.0008 mole fraction
same,Mole fraction solubility,"Bet – TEG 1:2, x*DES 1.0 (neat DES), 25°C",0.0474±0.0003 mole fraction
same,Mole fraction solubility,"Bet – TEG 1:2, x*DES 1.0 (neat DES), 30°C",0.0541±0.0004 mole fraction
same,Mole fraction solubility,"Bet – TEG 1:2, x*DES 1.0 (neat DES), 35°C",0.0657±0.0011 mole fraction
same,Mole fraction solubility,"Bet – TEG 1:2, x*DES 1.0 (neat DES), 40°C",0.0778±0.0009 mole fraction
same,Increase in the solubility compared to the neat DES,"Bet-TEG 1:2, x*DES = 0.9 (xwater = 0.1)",3%
same,Mole fraction solubility,"ChCl – TEG 1:2 + water, x*DES 0.1, 25°C",0.0069±0.0001 mole fraction
same,Mole fraction solubility,"ChCl – TEG 1:2 + water, x*DES 0.1, 30°C",0.0093±0.0001 mole fraction
same,Mole fraction solubility,"ChCl – TEG 1:2 + water, x*DES 0.1, 35°C",0.0131±0.0001 mole fraction
same,Mole fraction solubility,"ChCl – TEG 1:2 + water, x*DES 0.1, 40°C",0.0174±0.0002 mole fraction
same,Mole fraction solubility,"ChCl – TEG 1:2 + water, x*DES 0.2, 25°C",0.0122±0.0001 mole fraction
same,Mole fraction solubility,"ChCl – TEG 1:2 + water, x*DES 0.2, 30°C",0.0158±0.0001 mole fraction
same,Mole fraction solubility,"ChCl – TEG 1:2 + water, x*DES 0.2, 35°C",0.0218±0.0001 mole fraction
same,Mole fraction solubility,"ChCl – TEG 1:2 + water, x*DES 0.2, 40°C",0.0305±0.0002 mole fraction
same,Mole fraction solubility,"ChCl – TEG 1:2 + water, x*DES 0.3, 25°C",0.0186±0.0001 mole fraction
same,Mole fraction solubility,"ChCl – TEG 1:2 + water, x*DES 0.3, 30°C",0.0249±0.0001 mole fraction
same,Mole fraction solubility,"ChCl – TEG 1:2 + water, x*DES 0.3, 35°C",0.0347±0.0003 mole fraction
same,Mole fraction solubility,"ChCl – TEG 1:2 + water, x*DES 0.3, 40°C",0.0476±0.0003 mole fraction
same,Mole fraction solubility,"ChCl – TEG 1:2 + water, x*DES 0.4, 25°C",0.0254±0.0003 mole fraction
same,Mole fraction solubility,"ChCl – TEG 1:2 + water, x*DES 0.4, 30°C",0.0347±0.0004 mole fraction
same,Mole fraction solubility,"ChCl – TEG 1:2 + water, x*DES 0.4, 35°C",0.0466±0.0004 mole fraction
same,Mole fraction solubility,"ChCl – TEG 1:2 + water, x*DES 0.4, 40°C",0.0643±0.0006 mole fraction
same,Mole fraction solubility,"ChCl – TEG 1:2 + water, x*DES 0.5, 25°C",0.0324±0.0002 mole fraction
same,Mole fraction solubility,"ChCl – TEG 1:2 + water, x*DES 0.5, 30°C",0.0446±0.0004 mole fraction
same,Mole fraction solubility,"ChCl – TEG 1:2 + water, x*DES 0.5, 35°C",0.0618±0.0006 mole fraction
same,Mole fraction solubility,"ChCl – TEG 1:2 + water, x*DES 0.5, 40°C",0.0822±0.0010 mole fraction
same,Mole fraction solubility,"ChCl – TEG 1:2 + water, x*DES 0.6, 25°C",0.0401±0.0004 mole fraction
same,Mole fraction solubility,"ChCl – TEG 1:2 + water, x*DES 0.6, 30°C",0.0524±0.0005 mole fraction
same,Mole fraction solubility,"ChCl – TEG 1:2 + water, x*DES 0.6, 35°C",0.0731±0.0007 mole fraction
same,Mole fraction solubility,"ChCl – TEG 1:2 + water, x*DES 0.6, 40°C",0.0992±0.0012 mole fraction
same,Mole fraction solubility,"ChCl – TEG 1:2 + water, x*DES 0.7, 25°C",0.0475±0.0003 mole fraction
same,Mole fraction solubility,"ChCl – TEG 1:2 + water, x*DES 0.7, 30°C",0.0628±0.0004 mole fraction
same,Mole fraction solubility,"ChCl – TEG 1:2 + water, x*DES 0.7, 35°C",0.0871±0.0005 mole fraction
same,Mole fraction solubility,"ChCl – TEG 1:2 + water, x*DES 0.7, 40°C",0.1214±0.0012 mole fraction
same,Mole fraction solubility,"ChCl – TEG 1:2 + water, x*DES 0.8, 25°C",0.0541±0.0003 mole fraction
same,Mole fraction solubility,"ChCl – TEG 1:2 + water, x*DES 0.8, 30°C",0.0699±0.0006 mole fraction
same,Mole fraction solubility,"ChCl – TEG 1:2 + water, x*DES 0.8, 35°C",0.1009±0.0006 mole fraction
same,Mole fraction solubility,"ChCl – TEG 1:2 + water, x*DES 0.8, 40°C",0.1351±0.0013 mole fraction
same,Mole fraction solubility,"ChCl – TEG 1:2 + water, x*DES 0.9, 25°C",0.0550 mole fraction
same,Mole fraction solubility,"ChCl – TEG 1:2 + water, x*DES 0.9, 25°C, listed as syryngic acid",0.0550±0.0005 mole fraction
same,Mole fraction solubility,"ChCl – TEG 1:2 + water, x*DES 0.9, 30°C",0.0718±0.0005 mole fraction
same,Mole fraction solubility,"ChCl – TEG 1:2 + water, x*DES 0.9, 35°C",0.1018±0.0008 mole fraction
same,Mole fraction solubility,"ChCl – TEG 1:2 + water, x*DES 0.9, 40°C",0.1373±0.0011 mole fraction
same,Mole fraction solubility,"ChCl – TEG 1:2, x*DES 1.0 (neat DES), 25°C",0.0515±0.0004 mole fraction
same,Mole fraction solubility,"ChCl – TEG 1:2, x*DES 1.0 (neat DES), 30°C",0.0660±0.0003 mole fraction
same,Mole fraction solubility,"ChCl – TEG 1:2, x*DES 1.0 (neat DES), 35°C",0.0917±0.0006 mole fraction
same,Mole fraction solubility,"ChCl – TEG 1:2, x*DES 1.0 (neat DES), 40°C",0.1234±0.0013 mole fraction
same,Increase in the solubility compared to the neat DES,"ChCl-TEG 1:2, x*DES = 0.9 (xwater = 0.1)",7%
same,Solubility increase between 25 °C and 40 °C,neat DES (x*DES = 1.0) involving betaine (Bet-TEG 1:2),164%
same,Solubility increase between 25 °C and 40 °C,neat DES (x*DES = 1.0) with choline chloride (ChCl-TEG 1:2),240%
